Experimental data taken from patent US20140341939A1 (NATIONAL UNIVERSITY CORPORATION KOCHI UNIVERSITY, priority 2011, published 2014).
Where a SMILES comes first, the peptide text is derived from it. Where no end group is shown, it is not given here. The star is where a group is joined. Biotin = O=C1N[C@H]2[C@H](CS[C@H]2CCCCC(=O)*)N1

How the values were obtained:
[1] = test system: serum peptidase; assay: Degradation of peptide in 10% fresh mouse serum (HPLC of remaining peptide); settings: 10% fresh mouse serum, up to 16 hr (FIG. 21)
Procedure: Peptide was digested in TBS containing 10% fresh mouse serum or fresh human serum. After incubation at 37° C. for a given time, 1% trifluoro acid was added to remove various serum proteins by precipitation. After short centrifugation, the soluble fraction was analyzed by reversed-phase HPLC using a C18 analysis column. To normalize variation in the total amount of the peptide loaded for each HPLC, the peak of non-protein components contained in the serum, which is absorbed at the wavelength of 220 nm, was used as an internal control. The peak area of undigested peptides was quantitatively monitored by Chromatopac C-R8A (Shimadzu Corp., Kyoto, Japan), and the amount of the remaining peptide was calculated.
Therefore, the inventor examined the digestion resistance of peptide in vitro in a 10% fresh mouse serum. The amount of a remaining undigested peptide was quantified by HPLC.

[2] = test system: DO11.10 cells; assay: Antigen presentation by F2-IA^d vascular endothelial cells (CD69 expression by DO11.10 cells); assay type: cell-based, mouse
Procedure: EL4 cells were first opsonized with RGD peptide. Next, 5 mg/ml OVA protein was loaded on the cytoplasm by osmotic pressure loading. After sufficient washing, 2×10^6 EL4 cells were added to a confluent culture medium of F2-IA^d cells on a 24-well plate (cultured for 2 days in advance in the presence of 500 U/ml rmIFN-γ). As a control, EL4 and EG7 mock-loaded with PBS were RGD-modified in the same manner and used. EL4 and other target cells were added to F2-IA^d, and the cell mixture was cultured for 24 hr. As for the control well wherein F2-IA^d cells were directly loaded with OVAII peptide, the cells were pulsed with peptide for 2 hr at the end of the culture. After removing the non-adherent cells and debris of dead cells, the surface of the adhered F2-IA^d cells was sufficiently washed. In an antigen presentation inhibitory experiment using chloroquine, 100 μM chloroquine was added 30 min before addition of EL4, EL4 loaded with OVA or 0.25 mg/ml OVA protein. Furthermore, F2-IA^d cells were cultured for 3 days in the continuous presence of chloroquine.
Whether the F2-IA^d cells presented the target antigen polypeptide on the cell surface was evaluated by monitoring the expression of CD69 by DO11.10 cells. The antigen-presenting F2-IA^d cells and DO11.10 cells were mixed and centrifuged to contact the cells with one another. After 6 hr and 24 hr, the cells were stained with biotin-labeled anti CD69 mAb (H1.2F3, BD Biosciences), and the expression of CD69 by DO11.10 cells was detected by flow cytometry (stained positive with FITC-labeled KJ1.26 (anti clonotypic TCR mAb)).

[3] = TBS containing 10% fresh mouse serum; settings: 37° C., up to 16 hr
[4] = test system: DO11.10 cells; assay: Growth of CD4 T cells: proliferation of DO11.10 cells by OVII modified peptides (3H-thymidine); assay type: cell-based, mouse; settings: for sensitization activity compared to OVII+ (in words): effect of lysine, FIG. 20

| cleaved bond [3] | fragment found [3] | Molecule | other results |
| --- | --- | --- | --- |
| – | – | CC[C@H](C)[C@H](N)C(=O)N[C@@H](CO)C(=O)N[C@@H](CCC(N)=O)C(=O)N[C@@H](C)C(=O)N[C@H](C(=O)N[C@@H](Cc1c[nH]cn1)C(=O)N[C@@H](C)C(=O)N[C@@H](C)C(=O)N[C@@H](Cc1c[nH]cn1)C(=O)N[C@@H](C)C(=O)N[C@@H](CCC(=O)O)C(=O)N[C@H](C(=O)N[C@@H](CC(N)=O)C(=O)N[C@@H](CCC(=O)O)C(=O)N[C@@H](C)C(=O)N1CCC[C@H]1C(=O)NCCC(=O)O)[C@@H](C)CC)C(C)C [OVIIPβ] (HELM PEPTIDE1{I.S.Q.A.V.H.A.A.H.A.E.I.N.E.A.P.[bAla]}$$$$V2.0; N-terminus and C-terminus assumed) | digestion resistance to serum peptidases (in words) [1]: the protection effect was further enhanced, and the amount of the peptide remaining 16 hr later increased |
| – | – | CC[C@H](C)[C@H](NC(=O)[C@H](CCC(=O)O)NC(=O)[C@H](C)NC(=O)[C@H](Cc1c[nH]cn1)NC(=O)[C@H](C)NC(=O)[C@H](C)NC(=O)[C@H](Cc1c[nH]cn1)NC(=O)[C@@H](NC(=O)[C@H](C)NC(=O)[C@H](CCC(N)=O)NC(=O)[C@H](CO)NC(=O)[C@@H](NC(=O)[C@H](CO)NC(=O)[C@@H]1CCCN1)[C@@H](C)CC)C(C)C)C(=O)N[C@@H](CC(N)=O)C(=O)N[C@@H](CCC(=O)O)C(=O)N[C@@H](C)C(=O)N1CCC[C@H]1C(=O)NCCC(=O)O [POVIIPβ] | digestion resistance to serum peptidases (in words) [1]: further additional protective effect |
| – | – | CCN(CC)CCCC(C)Nc1ccnc2cc(Cl)ccc12 (centres unmarked) [chloroquine] | antigen presentation of OVA-loaded EL4 by F2-IA^d cells ([2]; 100 μM chloroquine (FIG. 4)): sensitive to chloroquine; presentation of OVA protein by F2-IA^d cells ([2]; 100 μM chloroquine (FIGS. 3, 4)): decreased |
| Ile-S, major | – | HELM PEPTIDE1{I.S.Q.A.V.H.A.A.H.A.E.I.N.E.A.P.[bAla]}$$$$V2.0 (N-terminus and C-terminus assumed; SMILES CC[C@H](C)[C@H](N)C(=O)N[C@@H](CO)C(=O)N[C@@H](CCC(N)=O)C(=O)N[C@@H](C)C(=O)N[C@H](C(=O)N[C@@H](Cc1c[nH]cn1)C(=O)N[C@@H](C)C(=O)N[C@@H](C)C(=O)N[C@@H](Cc1c[nH]cn1)C(=O)N[C@@H](C)C(=O)N[C@@H](CCC(=O)O)C(=O)N[C@H](C(=O)N[C@@H](CC(N)=O)C(=O)N[C@@H](CCC(=O)O)C(=O)N[C@@H](C)C(=O)N1CCC[C@H]1C(=O)NCCC(=O)O)[C@@H](C)CC)C(C)C) | – |
| Ile-S, major | – | ISQAVHAAHAEINEAPA | – |
| – | – | SKISQAVHAAHAEINEAR [KOVII+] | sensitization activity compared to OVII+ (in words) [4]: no difference in the sensitization activity compared to OVII+ |
| – | – | SKISQAVHAAHAEINEARK [KOVII+K] | sensitization activity compared to OVII+ (in words) [4]: no difference in the sensitization activity compared to OVII+ |
| Ser-K, major | product missing one biotin | SKISQAVHAAHAEINEARK^bioG | – |
| A-Arg, major | product missing one biotin | SK^bioISQAVHAAHAEINEAR (H-SK(Biotin)ISQAVHAAHAEINEAR-OH; N-terminus and C-terminus assumed; SMILES CC[C@H](C)[C@H](NC(=O)[C@H](CCC(=O)O)NC(=O)[C@H](C)NC(=O)[C@H](Cc1c[nH]cn1)NC(=O)[C@H](C)NC(=O)[C@H](C)NC(=O)[C@H](Cc1c[nH]cn1)NC(=O)[C@@H](NC(=O)[C@H](C)NC(=O)[C@H](CCC(N)=O)NC(=O)[C@H](CO)NC(=O)[C@@H](NC(=O)[C@H](CCCCNC(=O)CCCC[C@@H]1SC[C@@H]2NC(=O)N[C@@H]21)NC(=O)[C@@H](N)CO)[C@@H](C)CC)C(C)C)C(=O)N[C@@H](CC(N)=O)C(=O)N[C@@H](CCC(=O)O)C(=O)N[C@@H](C)C(=O)N[C@@H](CCCNC(=N)N)C(=O)O) | – |
| A-R, major | product missing one biotin | SK^bioISQAVHAAHAEINEARK^bio | – |
| – | – | SK^bioISQAVHAAHAEINEARK^bio (SK(Biotin)ISQAVHAAHAEINEARK(Biotin)) [bOVII+b] | activity to induce proliferation of DO11.10 Th cell relative to KOVII+ and KOVII+K, respectively ([4]; bOVII+ vs KOVII+, bOVII+b vs KOVII+K (FIG. 20)): about 10 fold; increase in sensitization activity compared to OVIIβ, OVIIPA ([4]; relative to peptides with Pro at second position from C terminal and/or β-Ala at C terminal (OVIIβ, OVIIPA, FIG. 11)): 100 fold |

| Molecule | cleaved bond [3] | fragment found [3] | other results |
| --- | --- | --- | --- |
| PSK^bioISQAVHAAHAEINEARK^bioPβA | – | product which has lost the biotin molecule on the N terminal side, major | – |
